US20100284925A1, “Small Molecule Intervention for Obesity” (priority 2006, published 2010)

What was measured:
PLTP promoter = test: PLTP-promoter luciferase reporter in HepG2 and transgenic HepG2/PLTPpLuc cells; format: cell-based, human; details: luciferase reporter, HepG2 or HepG2/PLTPpLuc cells
Excerpt: FIG. 2A. A 1.5 Kb PLTP promoter fused to a luciferase reporter was transactivated by topotecan dose-dependently.
FIG. 2B. Activation of PLTP promoter by topotecan in HepG2 transgenic cells containing the PLTP-promoter luciferase reporter gene fused to the neomycin selectable marker cassette and stably transfected into HepG2 cells to generate the transgenic line (Top panel). Dose-dependent induction of PLTP promoter by topotecan (Bottom panel). Results are the means S.E. of three experiments after normalization with Renilla luciferase.
FIG. 3A. Dose-dependent transactivation of the PLTP promoter by prieurianin in the HepG2 transgenic cells. Results are the means S.E. of three experiments after normalization with Renilla luciferase.
FIG. 3B. […] 1, Control; 2. […] Results are the means±S.E. of triplicate experiments.
FIG. 11. Transactivation of PLTP promoter by cytotoxic and non-cytotoxic drugs. Survey of transactivation of the PLTP promoter by various cytotoxic and non-cytotoxic drugs in the HepG2 transgenic cells was conducted. Results are the means S.E. of three experiments.
FIG. 12. Effects of trichostatin A (TSA) on transactivation of PLTP promoter by prieurianin. Dose response activation of PLTP promoter by prieurianin either in the presence or the absence of 200 nM TSA. Results are the means S.E. of three experiments.
To determine whether non-cytotoxic small molecules could induce PLTP expression, the inventor herein subcloned the PLTP-promoter luciferase reporter into a vector containing a neomycin (G418)-resistance selectable marker and generated a transgenic HepG2 cell line, which harbors the PLTP-promoter luciferase reporter, by stable gene transfection and selection with G418.
The transgenic cells were then screened with a library of small molecules derived from natural products.

[1] = Body weight in leptin-receptor deficient db/db mice; format: in vivo
Protocol: FIG. 15A. Groups of 10 db/db mice were given either 3 or 5 mg/kg of prieurianin i.p. daily for 30 days.
(§1) The effects of prieurianin were tested in three additional mouse models of obesity including the genetically hyperinsulinemic leptin-receptor deficient db/db, the Ceacam−/− glucose intolerant/diabetic, and the diet-induced obese mice. Prieurianin was administered intraperitoneally (i.p.) to 12-14 week-old db/db mice daily (3 or 5 mg/kg) for 30 days. The diet-induced obese Ceacam−/− diabetic mice were fed a high fat diet for 4 weeks for fattening, followed by prieurianin treatment (3 or 5 mg/kg) for 3 weeks. Vehicle treated controls received equivolume injections of Captisol (CyDex Inc., Lenexa, Kans.). Body weight and food intake were measured every three days, and blood samples were collected at the end of the experiment.

[2] = format: in vivo, mice
Protocol: FIG. 15B. Genetically diabetic Ceacam^−/− knockout mice were fed high fat diet for fattening for 4 weeks followed by daily prieurianin treatment (3 or 5 mg/kg) for 21 days. Vehicle treated db/db and Ceacam^−/− mice were given equivolume of Captisol. Results are the means S.E. of 10 animals per group.
as §1

NIH-3T3/L1 preadipocytes [3] = test: Proliferation of NIH-3T3/L1 preadipocytes (daily cell counting); format: cell-based
Protocol: FIG. 6. Inhibition of NIH-3T3/L1 preadipocytes proliferation by prieurianin. Cells were treated with various concentrations (0.5, 1, and 2 μM) of prieurianin and growth was assessed by counting daily for 7 days. Results are means±S.E. of triplicate experiments.

NIH-3T3/L1 preadipocytes [4] = format: cell-based; details: 2 μM
Protocol: FIG. 7D. Flow cytometric analysis of annexin V binding to phosphatidylserine, apoptotic cells are on the upper right quadrant. All experiments were conducted in triplicate.

adiponectin = test: Adiponectin release into conditioned media (Western blot); format: cell-based
Protocol: (§2) FIG. 10. Release of adiponectin and PLTP by preadipocytes and adipocytes, and in serum of normal mice. Preadipocytes (B and D) were treated with 2 μM of prieurianin and media collected after 36 hrs for Western blot analysis of either adiponectin (A and B) or PLTP (C and D). Alternatively, five days following differentiation, conditioned media of adipocyets (A and C) were collected for Western analysis. E. Serum of normal C57BL/6J mice given prieurianin or topotecan (0, 2, 5, and 10 mg/kg) was analyzed by Western blot for PLTP.
Adipose tissue contains various types of cells including preadipocytes and adipocytes. Also, preadipocytes secrete factors involved in their own differentiation. Once differentiated, the mature adipocytes acquire the ability to communicate distally with other organs including brain, liver, and skeletal muscle and locally with other cells such as preadipocytes, endothelial cells and monocytes/macrophages by secreting leptin and adiponectin. In addition, anti-adipogenic cytokines prevent the release of adiponectin by preadipocytes. Thus, the production of adiponectin and PLTP by preadipocytes and adipocytes was assessed.

PLTP = PLTP release into conditioned media (Western blot); format: cell-based
Protocol: as §2
The expression and secretion of PLTP by preadipocytes and adipocytes was also assessed. Thus, preadipocytes produced and released both the low and the high molecular weight forms of PLTP, while adipocytes secreted only the low molecular weight form (see FIGS. 10C and 10D) into the conditioned media.

PPARγ = PPARγ response element luciferase reporter in L1 preadipocytes; format: cell-based; details: prieurianin 2 μM
Protocol: FIG. 18. Effects of prieurianin on C/EBPα and β and PPARγ mediated transcription in adipogenesis. Response elements corresponding to C/EBPα and β and PPARγ are cloned into the pGL3 basic luciferase reporter plasmid. L1 preadipocytes were contransfected with the reporter plasmid either in the presence or the absence of the corresponding transcription factors cloned into expression vector, followed by treatment with 2 μM of prieurianin. Cells were harvested for luciferase assay 15-24 hrs later. Results are means±S.E. of triplicate experiments.

C=C1[C@@H]([C@@]2(C)[C@@H](OC(C)=O)CC(=O)O[C@](C)(COC(C)=O)[C@@H]2C(=O)OC)[C@@H](OC=O)[C@H](OC(=O)[C@H](O)[C@H](C)CC)[C@@]2(C)[C@H](c3ccoc3)CC(=O)[C@]12O [prieurianin]
transactivation of PLTP promoter (PLTP promoter): exhibited the strongest transactivation of the PLTP promoter, and showed induction of PLTP in a dose-dependent manner | weight loss ([1]; 3 or 5 mg/kg i.p. daily): No weight loss was observed | attenuation of weight gain ([1]; over three weeks, vs untreated or vehicle-treated controls): 50% | body weight relative to pre-fattening ([2]; 3 mg/kg treated group): Body weight returned to pre-fattening level | toxicity ([2]; Ceacam−/− mice given 5 mg/kg): euthanized after 14 days of treatment due to severe weight loss and unknown toxicity | subcutaneous or visceral fats in postmortem analysis ([2]; Ceacam−/− mice given 5 mg/kg, relative to controls): Little subcutaneous or visceral fats were observed | body weight loss ([2]; diet-induced obese Ceacam−/− mice, 3 or 5 mg/kg): 20-26% | reduced food intake ([2]; diet-induced obese Ceacam−/− mice, compared to controls): > 50% | proliferation of preadipocytes (NIH-3T3/L1 preadipocytes [3]; 0.5, 1 and 2 μM, 7 days): inhibited the proliferation of the NIH-3T3/L1 preadipocytes in a dose-dependent manner | inhibition at 2 µM (NIH-3T3/L1 preadipocytes [3]; Mus musculus, NIH3T3, 168 h, 2 μM, day 7): 50% | apoptosis (annexin V binding to phosphatidylserine) (NIH-3T3/L1 preadipocytes [4]): did not differentially induce apoptosis | adiponectin release by preadipocytes (adiponectin; NIH-3T3/L1 preadipocytes, approximately 36 hrs after treatment): inhibition of adiponectin release | adiponectin production and release in differentiated adipocytes (adiponectin; differentiated adipocytes): induced the production and release of high molecular weight form, as well as a modest increase in the secretion of total adiponectin | release of PLTP by adipocytes (PLTP; adipocytes): induced an increase in the release of only the low molecular weight form of PLTP | release of PLTP by preadipocytes (PLTP; preadipocytes): release of the low but not the high molecular form of PLTP was reduced | transactivation potential of PPARγ (PPARγ): inhibits the transactivation potential
